Results from paper PMC12207250, “Investigations of amination reactions on an antimalarial 1,2,4-triazolo[4,3-a]pyrazine scaffold” (Beilstein Journal of Organic Chemistry, 2025).
Like-named read-outs stand apart in the source and are kept apart here. Blank lines part the entries; values can stand above or below the molecule they belong to.

How the values were obtained:
[1] = tested on: P. falciparum 3D7 (chloroquine-sensitive strain); experiment: In vitro antiplasmodial image-based assay; type: cell-based, Plasmodium falciparum; conditions: for IC50 / inhibition at 80 µM: Plasmodium falciparum; for IC50: read-out: Pf 3D7 IC50 ± SD; for Selectivity index (fold difference) IC50(HEK293)/IC50(Pf 3D7): HEK293 versus Pf 3D7; for inhibition at 80 µM: 3D7, accurate IC50 not determinable, read-out: growth inhibition against Pf 3D7 at the assay top dose
Description: Plasmodium falciparum 3D7 were cultured in RPMI1640 (Life Technologies, Camarillo, CA, USA) supplemented with 2.5 mg/mL Albumax II, 5% AB human serum, 25 mM HEPES, and 0.37 mM hypoxanthine. Human red blood cells (RBC) (O+) were supplied by Australian Red Cross LifeBlood in accordance with agreement 23-05QLD-23. Use of human RBC for antiplasmodial experimentation was in accordance with Griffith University Human Ethics Exemption Approval #03/08/11019. Ring-stage parasites were treated with compounds following two rounds of sorbitol synchronisation, as previously described. Puromycin, chloroquine, pyrimethamine, and dihydroartemisinin were used as reference compounds. Following incubation of assay plates for 72 h at 37 °C, and 5% CO2 and 5% O2, parasites were stained with 2-(4-amidinophenyl)-1H-indole-6-carboxamidine (DAPI) and imaged using an Opera PhenixPlus™ High Content Screening System (PerkinElmer, Waltham, MA, USA). Images were analysed using the Harmony software (PerkinElmer, Waltham, MA, USA). […]
In vitro antiplasmodial image-based assay
Plasmodium falciparum 3D7 were cultured in RPMI1640 (Life Technologies, Camarillo, CA, USA) supplemented with 2.5 mg/mL Albumax II, 5% AB human serum, 25 mM HEPES, and 0.37mM hypoxanthine. Human red blood cells (RBC) (O+) were supplied by Australian Red Cross LifeBlood in accordance with agreement 23-05QLD-23. Use of human RBC for anti-plasmodial experimentation was in accordance with Griffith University Human Ethics Exemption Approval #03/08/11019. Ring stage parasites were treated with compounds following two rounds of sorbitol synchronisation, as previously described. Puromycin, chloroquine, pyrimethamine, and dihydroartemisinin were used as reference compounds. Following incubation of assay plates for 72 h at 37 °C, and 5% CO2 and 5% O2, parasites were stained with 2-(4-amidinophenyl)-1H-indole-6-carboxamidine (DAPI) and imaged using an Opera PhenixPlusTM High Content Screening System (PerkinElmer, Waltham, MA, USA).
Images were analysed using Harmony software (PerkinElmer, Waltham, MA, USA).

HEK293 cells = experiment: In vitro cytotoxicity assay (resazurin); type: cell-based, human; conditions: for cytotoxicity against HEK293 cells at the top concentration tested (in words): 80 µM
Description: (§1) Human embryonic kidney (HEK293) cells were maintained in DMEM (Life Technologies, Camarillo, CA, USA) containing 10% FBS (Hyclone™ ThermoFisher, Melbourne, Australia). Cytotoxicity testing was undertaken as previously described. In brief, 5 μL of test compound was added to the well of black/clear tissue culture-treated, 384-well plates containing 2000 adherent HEK293 cells/well and incubated 72 h at 37 °C in 5% CO2. […], 5 µL of 600 µM resazurin, diluted in growth media, was added. Plates were further incubated for 6 h and measured for fluorescence at 530 nm excitation and 595 nm emission. The % inhibition was calculated using 0.4% DMSO (no inhibition) and 50 μM puromycin (100% inhibition) data. Puromycin was included as a reference compound to assess assay validity. IC50 values were obtained by plotting % inhibition against log dose using GraphPad Prism v.6 (San Diego, CA, USA) nonlinear regression with a variable slope plot.
In vitro cytotoxicity assay
Human embryonic kidney (HEK293) cells were maintained in DMEM (Life
Technologies, Camarillo, CA, USA) containing 10% FBS (Hyclone™ ThermoFisher, Melbourne, Australia). Cytotoxicity testing was undertaken as previously described.
as §1, with “In brief,” for “Human embryonic kidney (HEK293) cells were maintained in DMEM (Life Technologies, Camarillo, CA, USA) containing 10% FBS (Hyclone™ ThermoFisher, Melbourne, Australia). Cytotoxicity testing was undertaken as previously described. In brief,”, “and incubated for 72 h” for “and incubated 72 h”, “slope plot. […]” for “slope plot.”

[2] = P. falciparum 3D7, ring-stage, 72 h, mean of duplicate, n = 1
[3] = Homo sapiens, HEK293, at top concentration 80 µM, 72 h, mean of duplicate, n = 1, read-out: HEK293 % inhibition ± SD
[4] = reference compounds, P. falciparum 3D7, 72 h

SMILES: Clc1ccc(-c2nnc3c(NCCc4ccccc4)nccn23)cc1 [Compound 2, 3-(4-Chlorophenyl)-N-phenethyl-[1,2,4]triazolo[4,3-a]pyrazin-8-amine]
inhibition at 80 µM [1]: < 100%
cytotoxicity against HEK293 cells at the top concentration tested (in words) (HEK293 cells): no cytotoxicity

SMILES: Fc1ccc(CCNc2nccn3c(-c4ccc(Cl)cc4)nnc23)cc1 [Compound 3]
inhibition at 80 µM [1]: < 100%
cytotoxicity against HEK293 cells at the top concentration tested (in words) (HEK293 cells): some inhibition
inhibition at 80 µM (HEK293 cells; [3]): 74 ± 7%

SMILES: Clc1ccc(-c2nnc3c(NCc4ccccc4)nccn23)cc1 [Compound 4]
inhibition at 80 µM [1]: < 100%

SMILES: Fc1ccc(CNc2nccn3c(-c4ccc(Cl)cc4)nnc23)cc1 [Compound 5]
inhibition at 80 µM [1]: < 100%

SMILES: CCCNc1nccn2c(-c3ccc(Cl)cc3)nnc12 [Compound 6]
inhibition at 80 µM [1]: < 100%

SMILES: CC(C)CCNc1nccn2c(-c3ccc(Cl)cc3)nnc12 [Compound 7, 3-(4-Chlorophenyl)-N-isopentyl-[1,2,4]triazolo[4,3-a]pyrazin-8-amine]
inhibition at 80 µM [1]: < 100%

SMILES: Clc1ccc(-c2nnc3c(NC4CCCCC4)nccn23)cc1 [Compound 8]
inhibition at 80 µM [1]: < 100%

SMILES: COCCNc1nccn2c(-c3ccc(Cl)cc3)nnc12 [Compound 9]
inhibition at 80 µM [1]: < 100%

SMILES: CN(C)CCNc1nccn2c(-c3ccc(Cl)cc3)nnc12 [Compound 10, N^1-(3-(4-Chlorophenyl)-[1,2,4]triazolo[4,3-a]pyrazin-8-yl)-N^2,N^2-dimethylethane-1,2-diamine]
Selectivity index (fold difference) IC50(HEK293)/IC50(Pf 3D7) [1]: >3
IC50 [1, 2]: 23.3 ± 1.7 µM

SMILES: CN(C)CCCNc1nccn2c(-c3ccc(Cl)cc3)nnc12 [Compound 12]
Selectivity index (fold difference) IC50(HEK293)/IC50(Pf 3D7) [1]: >4
IC50 [1, 2]: 22 ± 1.56 µM

SMILES: CC(C)(C)OC(=O)NCCCCNc1nccn2c(-c3ccc(Cl)cc3)nnc12 [Compound 15, tert-Butyl(4-((3-(4-chlorophenyl)-[1,2,4]triazolo[4,3-a]pyrazin-8 yl)amino)butyl)carbamate]
inhibition at 80 µM [1]: < 100%
inhibition at 80 µM (HEK293 cells; [3]): 57 ± 4%

More lines, main results first:

IC50 ([1]; 3D7, 72 h): 0.0212 ± 0.00566 µM
SMILES: CCN(CC)CCCC(C)Nc1ccnc2cc(Cl)ccc12 (centres unmarked) [CQ, chloroquine, reference compound]

IC50 [1, 2]: 12.6 ± 1.9 µM
SMILES: Clc1ccc(-c2nnc3cncc(Cl)n23)cc1 [Compound 1, 5-chloro-3-(4-chlorophenyl)-[1,2,4]triazolo[4,3-a]pyrazine]
Selectivity index (fold difference) IC50(HEK293)/IC50(Pf 3D7) [1]: >6
cytotoxicity against HEK293 cells at the top concentration tested (in words) (HEK293 cells): no cytotoxicity

IC50 [1, 2]: 22 ± 2.4 µM
SMILES: CCN(CC)CCNc1nccn2c(-c3ccc(Cl)cc3)nnc12 [Compound 11]
Selectivity index (fold difference) IC50(HEK293)/IC50(Pf 3D7) [1]: >4

IC50 [1, 2]: 11.3 ± 0.57 µM
SMILES: CCN(CC)CCCNc1nccn2c(-c3ccc(Cl)cc3)nnc12 [Compound 13]
inhibition at up to 80 µM (HEK293 cells; [3]): 48 ± 5%

IC50 [1, 2]: 9.9 ± 1.27 µM
SMILES: Clc1ccc(-c2nnc3c(NCCN4CCNCC4)nccn23)cc1 [Compound 14]
inhibition at 80 µM (HEK293 cells; [3]): 84 ± 4%

IC50 [1, 4]: 0.000475 ± 9e-05 µM
SMILES: C[C@H]1[C@@H](O)O[C@@H]2O[C@@]3(C)CC[C@H]4[C@H](C)CC[C@@H]1[C@@]24OO3 [DHA, dihydroartemisinin, reference compound]

IC50 [1, 4]: 0.0112 ± 0.00212 µM
SMILES: CCc1nc(N)nc(N)c1-c1ccc(Cl)cc1 [PMA, pyrimethamine, reference compound]

IC50 [1, 4]: 0.0338 ± 0.00566 µM
SMILES: COc1ccc(C[C@H](N)C(=O)N[C@H]2[C@@H](O)[C@H](n3cnc4c(N(C)C)ncnc43)O[C@@H]2CO)cc1 [PMY, puromycin, reference compound]
Selectivity index (fold difference) IC50(HEK293)/IC50(Pf 3D7) [1]: 13
IC50 (HEK293 cells; Homo sapiens, HEK293, reference compounds, 72 h, read-out: HEK293 IC50 ± SD): 0.43 ± 0.0283 µM
